Earlier results on one compound are cited in US20090098173A1, “TOPICAL PAIN RELIEF PRODUCT” (priority 2007, published 2009).

The conditions of the series: as described in U.S. Pat. No. 7,189,760 / 7,030,273.

On to `CCOC(=O)CNC(=O)C1CC(C)CCC1C(C)C` (stereo not shown) [ethyl ester of N-[[5-methyl-2-(1-methylethyl)cyclohexyl]carbonyl]glycine], for which the physiological cooling activity result was “substantially high physiological cooling activity”.
